{"source": "paper PMC3963471", "about": "(Bioorganic & medicinal chemistry letters, 2013)", "key": {"[1]": {"biological_target": "S1P2-R (Homo sapiens, UniProt O95136)", "sequence (O95136 whole entry)": "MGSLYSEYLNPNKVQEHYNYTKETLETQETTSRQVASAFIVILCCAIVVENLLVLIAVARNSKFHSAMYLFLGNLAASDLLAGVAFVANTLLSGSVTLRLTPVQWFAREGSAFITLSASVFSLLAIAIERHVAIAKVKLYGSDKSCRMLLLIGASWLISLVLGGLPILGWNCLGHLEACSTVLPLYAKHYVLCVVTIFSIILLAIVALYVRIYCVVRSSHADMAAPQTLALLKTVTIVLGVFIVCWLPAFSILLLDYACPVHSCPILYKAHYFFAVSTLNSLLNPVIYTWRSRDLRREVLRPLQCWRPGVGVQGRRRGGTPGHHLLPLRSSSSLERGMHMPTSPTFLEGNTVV", "assay": "S1P2-R selectivity counter screen", "assay_type": "cell-based", "settings": "at concentrations up to 50 µM"}, "[2]": {"biological_target": "T1, S1P4-R (Homo sapiens, UniProt O95977)", "T1 sequence (O95977 1-384)": "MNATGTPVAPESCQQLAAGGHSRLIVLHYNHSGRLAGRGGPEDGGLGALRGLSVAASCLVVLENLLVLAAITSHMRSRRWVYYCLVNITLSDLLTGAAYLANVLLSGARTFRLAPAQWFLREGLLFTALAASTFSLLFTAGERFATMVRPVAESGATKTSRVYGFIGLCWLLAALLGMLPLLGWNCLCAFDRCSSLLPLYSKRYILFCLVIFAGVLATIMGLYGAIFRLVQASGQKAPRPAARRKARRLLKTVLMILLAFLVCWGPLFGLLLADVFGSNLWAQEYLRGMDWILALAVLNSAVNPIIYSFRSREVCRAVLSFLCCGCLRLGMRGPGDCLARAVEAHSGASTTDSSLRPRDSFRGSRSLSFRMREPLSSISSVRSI", "assay": "S1P4-R selectivity counter screen", "assay_type": "cell-based", "settings": "at concentrations up to 50 µM"}, "[3]": {"biological_target": "T2, S1P3-R (Homo sapiens, UniProt Q99500)", "T2 sequence (Q99500 whole entry)": "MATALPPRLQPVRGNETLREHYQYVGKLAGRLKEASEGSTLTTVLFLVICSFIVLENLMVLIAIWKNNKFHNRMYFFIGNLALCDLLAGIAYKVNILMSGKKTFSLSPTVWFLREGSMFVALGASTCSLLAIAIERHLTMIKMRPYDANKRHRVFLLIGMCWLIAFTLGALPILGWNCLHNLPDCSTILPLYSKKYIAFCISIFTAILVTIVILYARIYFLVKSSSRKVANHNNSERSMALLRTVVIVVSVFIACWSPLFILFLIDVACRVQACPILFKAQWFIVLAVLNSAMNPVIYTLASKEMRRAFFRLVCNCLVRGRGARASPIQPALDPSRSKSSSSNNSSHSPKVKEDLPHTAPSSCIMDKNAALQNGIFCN", "assay": "S1P3-R agonist assay, CHO NFAT-BLA reporter", "assay_type": "cell-based", "settings": "for loss in potency for the S1P3-R relative to hit 1a: less potent than 1a; for selectivity against S1P1,2,4,5-R subtypes (in words): S1P3-R agonist versus remaining subtypes; for loss of potency at S1P3-R relative to 5f: less potent than 5f"}, "[4]": {"biological_target": "S1P1-R (Homo sapiens, UniProt P21453)", "sequence (P21453 whole entry)": "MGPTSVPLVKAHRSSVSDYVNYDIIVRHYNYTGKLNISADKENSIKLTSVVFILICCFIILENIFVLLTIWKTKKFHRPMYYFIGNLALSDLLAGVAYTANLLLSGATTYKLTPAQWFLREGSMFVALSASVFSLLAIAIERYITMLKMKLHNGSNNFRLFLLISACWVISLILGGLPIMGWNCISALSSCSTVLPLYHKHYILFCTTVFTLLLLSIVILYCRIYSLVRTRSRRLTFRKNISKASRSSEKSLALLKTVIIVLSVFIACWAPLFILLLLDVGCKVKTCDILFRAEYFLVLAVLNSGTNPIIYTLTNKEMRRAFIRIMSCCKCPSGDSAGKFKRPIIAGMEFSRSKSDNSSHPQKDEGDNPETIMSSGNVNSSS", "assay": "S1P1-R agonist assay", "assay_type": "cell-based"}, "[5]": {"system": "Ricerca panel of off target proteins including GPCRs, enzymes and ion channels", "assay": "Ricerca panel of off target proteins", "settings": "at 30 µM; targets other than those singled out"}, "[6]": {"system": "sodium channel site two", "assay": "Ricerca panel: sodium channel site two", "assay_type": "binding", "settings": "30 µM; borderline inhibition"}, "[7]": {"biological_target": "T2, S1P3-R", "assay": "[33P]S1P competitive binding experiment in S1P3 jump-in CHO cells", "settings": "0.1 nM [33P]S1P; competitor 0.001 nM to 10 µM; 4 °C, 30 min"}}, "data": [{"molecule": "CCCc1cc(C(=O)N(C2CCCCC2)C2CCCCC2)no1", "note": "[Compd 1a, N,N-dicyclohexyl-5-propylisoxazole-3-carboxamide]", "values": [{"measurement": "agonist activity at S1P2-R", "setting": "[1]", "result": "no agonist activity"}, {"measurement": "agonist activity at S1P4-R", "setting": "[2]", "result": "no agonist activity"}]}, {"molecule": "CCCc1cc(C(=O)N(C2CCCCC2)C2CCCC2)no1", "note": "[Compd 1b]", "values": [{"measurement": "loss in potency for the S1P3-R relative to hit 1a", "setting": "[3]", "result": 18, "unit": "fold"}, {"measurement": "loss in potency for the S1P1-R relative to hit 1a", "setting": "[4]; less potent than 1a", "result": "three-fold"}]}, {"molecule": "CCCc1cc(C(=O)NC2CCCCC2)no1", "note": "[Compd 1c]", "values": [{"measurement": "activity at S1P3-R (in words)", "setting": "[3]", "result": "complete loss of potency"}, {"measurement": "activity at S1P1-R (in words)", "setting": "[4]", "result": "complete loss of potency"}]}, {"molecule": "CCCc1cc(C(=O)N(c2ccccc2)C2CCCCC2)no1", "note": "[Compd 1d]", "values": [{"measurement": "activity at S1P3-R (in words)", "setting": "[3]", "result": "complete loss of potency"}, {"measurement": "activity at S1P1-R (in words)", "setting": "[4]", "result": "complete loss of potency"}]}, {"molecule": "CC(C)Cc1cc(C(=O)N(C2CCCCC2)C2CCCCC2)no1", "note": "[Compd 5a]", "values": [{"measurement": "loss in potency for the S1P3-R relative to hit 1a", "setting": "[3]", "result": "three-fold"}, {"measurement": "less selective against the S1P1-R than the hit", "setting": "[4]; S1P3-R over S1P1-R, relative to 1a", "result": "four-fold"}]}, {"molecule": "CC(C)c1cc(C(=O)N(C2CCCCC2)C2CCCCC2)no1", "note": "[Compd 5b]", "values": [{"measurement": "loss in potency for the S1P3-R relative to hit 1a", "setting": "[3]", "result": "two-fold"}]}, {"molecule": "Cc1cc(C(=O)N(C2CCCCC2)C2CCCCC2)no1", "note": "[Compd 5c]", "values": [{"measurement": "loss in potency for the S1P3-R relative to hit 1a", "setting": "[3]", "result": 15, "unit": "fold"}]}, {"molecule": "O=C(c1cc(C2CCCCC2)on1)N(C1CCCCC1)C1CCCCC1", "note": "[Compd 5d]", "values": [{"measurement": "activity at S1P1-R (in words)", "setting": "[4]", "result": "inactive"}]}, {"molecule": "O=C(c1cc(C2CCCC2)on1)N(C1CCCCC1)C1CCCCC1", "note": "[Compd 5e]", "values": [{"measurement": "activity at S1P1-R (in words)", "setting": "[4]", "result": "inactive"}]}, {"molecule": "O=C(c1cc(C2CC2)on1)N(C1CCCCC1)C1CCCCC1", "note": "[Compd 5f, N,N-dicyclohexyl-5-cyclopropylisoxazole-3-carboxamide]", "values": [{"measurement": "selectivity against S1P1,2,4,5-R subtypes (in words)", "setting": "[3]", "result": "exquisitely selective"}, {"measurement": "more potent than the hit at S1P3-R", "setting": "[3]; relative to 1a", "result": "four-fold"}, {"measurement": "stimulation/inhibition of panel targets", "setting": "[5]", "result": "< 50", "unit": "%"}, {"measurement": "inhibition of sodium channel site two", "setting": "[6]", "result": "≥ 50", "unit": "%"}, {"measurement": "competition with [33P]S1P for the S1P3-R binding pocket", "setting": "[7]", "result": "does not compete"}]}, {"molecule": "COc1ccc(-c2cc(C(=O)N(C3CCCCC3)C3CCCCC3)no2)cc1", "note": "[Compd 5h]", "values": [{"measurement": "selectivity against the S1P1-R", "setting": "[4]; S1P3-R over S1P1-R", "result": "less than three-fold"}]}, {"molecule": "CCOc1ccc(-c2cc(C(=O)N(C3CCCCC3)C3CCCCC3)no2)cc1OCC", "note": "[Compd 5i]", "values": [{"measurement": "loss in potency for the S1P3-R relative to hit 1a", "setting": "[3]", "result": 18, "unit": "fold"}]}, {"molecule": "O=C(NC1CCCCC1)c1cc(C2CC2)on1", "note": "[Compd 7a]", "values": [{"measurement": "activity at S1P3-R (in words)", "setting": "[3]", "result": "complete loss of activity"}]}, {"molecule": "O=C(c1cc(C2CC2)on1)N(C1CCCCC1)C1CCCC1", "note": "[Compd 7b]", "values": [{"measurement": "loss of potency at S1P3-R relative to 5f", "setting": "[3]", "result": 16, "unit": "fold"}]}, {"molecule": "O=C(c1cc(C2CC2)on1)N(C1CCCCC1)C1CCOCC1", "note": "[Compd 7c]", "values": [{"measurement": "loss of potency at S1P3-R relative to 5f", "setting": "[3]", "result": 33, "unit": "fold"}]}, {"molecule": "O=C(c1cc(C2CC2)on1)N(CC1CCCCC1)C1CCCCC1", "note": "[Compd 7d]", "values": [{"measurement": "loss of potency at S1P3-R relative to 5f", "setting": "[3]", "result": 32, "unit": "fold"}]}, {"molecule": "CC1CCCCC1N(C(=O)c1cc(C2CC2)on1)C1CCCCC1", "note": "(centres unmarked) [Compd 7e]", "values": [{"measurement": "selectivity against S1P1,2,4,5-R subtypes (in words)", "setting": "[3]", "result": "exquisitely selective"}, {"measurement": "loss of potency at S1P3-R relative to 5f", "setting": "[3]", "result": "three-fold"}]}, {"molecule": "CC1CCCCC1N(C(=O)c1cc(C2CC2)on1)C1CCCCC1C", "note": "(centres unmarked) [Compd 7f]", "values": [{"measurement": "selectivity against S1P1,2,4,5-R subtypes (in words)", "setting": "[3]", "result": "exquisitely selective"}, {"measurement": "loss of potency at S1P3-R relative to 5f", "setting": "[3]", "result": "two-fold"}]}, {"molecule": "CC1CCCCC1N(C(=O)c1cc(C2CC2)on1)C1CCCCCC1", "note": "(centres unmarked) [Compd 7g]", "values": [{"measurement": "less potent than 7e at S1P3-R", "setting": "[3]; relative to 7e", "result": "almost two-fold"}]}, {"molecule": "O=C(c1cc(C2CC2)on1)N(C1CCCCCC1)C1CCCC1", "note": "[Compd 7j]", "values": [{"measurement": "loss of potency at S1P3-R relative to 5f", "setting": "[3]", "result": 26, "unit": "fold"}]}, {"molecule": "O=C(c1cc(C2CC2)on1)N(Cc1ccccc1)c1ccccc1", "note": "[Compd 7k]", "values": [{"measurement": "activity at S1P3-R (in words)", "setting": "[3]", "result": "drastic loss in potency"}]}, {"molecule": "O=C(c1cc(C2CC2)on1)N(Cc1ccccc1)c1ccccn1", "note": "[Compd 7l]", "values": [{"measurement": "activity at S1P3-R (in words)", "setting": "[3]", "result": "drastic loss in potency"}]}, {"molecule": "O=C(c1coc(C2CC2)n1)N(C1CCCCC1)C1CCCCC1", "note": "[Compd 9a]", "values": [{"measurement": "activity at S1P3-R (in words)", "setting": "[3]", "result": "inactive"}]}, {"molecule": "O=C(c1ccc(C2CC2)o1)N(C1CCCCC1)C1CCCCC1", "note": "[Compd 9b]", "values": [{"measurement": "activity at S1P3-R (in words)", "setting": "[3]", "result": "inactive"}, {"measurement": "activity at S1P1-R (in words)", "setting": "[4]", "result": "micromolar activity"}]}, {"molecule": "O=C(c1noc2ccccc12)N(C1CCCCC1)C1CCCCC1", "note": "[Compd 9c]", "values": [{"measurement": "activity at S1P3-R (in words)", "setting": "[3]", "result": "inactive"}]}, {"molecule": "CCCCCCCCCCCCC/C=C/[C@@H](O)[C@@H](N)COP(=O)(O)O", "note": "[S1P, Sphingosine-1-phosphate, reference compound]", "values": [{"measurement": "competition with [33P]S1P for the S1P3-R binding pocket", "setting": "[7]", "result": "competes"}]}]}
